# Assay results published in patent US11465994B2, “MGluR7 agonist compounds for treating mGluR7-regulated diseases, disorders, or conditions” (Takeda Pharmaceutical Company Limited, priority 2016, dated 2022).
# Target: T1, mGluR7 (Homo sapiens, UniProt Q14831)
# Assay: cAMP CRE-luciferase reporter gene assay (Steady Glo) in CHO-CRE-luc cells stably expressing human mGluR7
# Assay type: cell-based
# Set-up: expressed in transfected cells
# Conditions: reduction of forskolin stimulated cAMP (luminescence); CHO CRE-luc human mGluR7; read-out: EC50
# Experimental: Compound activities were determined in CHO-CRE-luc cells stably expressing hu/mo mGluR7, using a cAMP reporter gene assay (Steady Glo, Promega). Selectivity was assessed in stable CHO-mGluR4 cells (DiscoverX) and CHO-mGluR8 transients using an HTRF cAMP assay (Cisbio).
# The ability of the test compounds to activate mGluR7 was determined by their ability to reduce forskolin stimulated cAMP production. Compounds were assessed in a CRE-directed luciferase reporter gene assay, using a stable CHO cell line expressing the CRE-luc reporter and human mGluR7 genes. In this cell line, production of cAMP stimulated the transcription of the luciferase gene and luciferase activity was then measured in a luminescent enzyme assay (Steady Glo assay; Promega E2550). Activation of mGluR7 decreased the forskolin stimulated luminescence signal.
# The day prior to the assay, compounds were serially diluted in DMSO (100× final assay concentration (FAC)), in 384-well plates which were then stored in the dark at room temperature (RT) until use. Cells were seeded at 12.5 k/well in white, clear bottom 384-well plates (Corning 3707) and left for one hour at RT followed by an overnight incubation (37° C.). The following day, the DMSO compound plate was diluted 1:20 (5×FAC) in Opti-MEM I (Life Technologies 11058021). The growth media was removed from the cell plate and replaced with 15 μl Opti-MEM I, followed by a 5 μl addition from the 5× compound plate and a fifteen minute incubation (37° C.). Forskolin (Sigma F3917) was then added to the wells (5 μl of 2.5 μM) and the plate was incubated for five hours (37° C.). During this incubation, the Steady Glo Substrate reagent was warmed to 37° C. Aliquots (11 ml; stored at −20° C.) of this reagent were prepared by dissolving the contents of 1 vial of lyophilised substrate in 100 ml Steady-Glo buffer. A 25 μl addition of the substrate was made to all wells and the plate was incubated for thirty minutes at RT, on a plate shaker (300 rpm; in the dark). Luminescence was then measured using the EnVision Multilabel Reader (Perkin Elmer).
# Compound activity was examined using a 10-point, half log concentration-response range and each concentration was tested in duplicate wells. Luminescence values were normalised to ‘maximum’ (forskolin alone) and ‘minimum’ (forskolin in the presence of tool mGluR7 agonist) controls.
# T1 sequence (Q14831 35-915): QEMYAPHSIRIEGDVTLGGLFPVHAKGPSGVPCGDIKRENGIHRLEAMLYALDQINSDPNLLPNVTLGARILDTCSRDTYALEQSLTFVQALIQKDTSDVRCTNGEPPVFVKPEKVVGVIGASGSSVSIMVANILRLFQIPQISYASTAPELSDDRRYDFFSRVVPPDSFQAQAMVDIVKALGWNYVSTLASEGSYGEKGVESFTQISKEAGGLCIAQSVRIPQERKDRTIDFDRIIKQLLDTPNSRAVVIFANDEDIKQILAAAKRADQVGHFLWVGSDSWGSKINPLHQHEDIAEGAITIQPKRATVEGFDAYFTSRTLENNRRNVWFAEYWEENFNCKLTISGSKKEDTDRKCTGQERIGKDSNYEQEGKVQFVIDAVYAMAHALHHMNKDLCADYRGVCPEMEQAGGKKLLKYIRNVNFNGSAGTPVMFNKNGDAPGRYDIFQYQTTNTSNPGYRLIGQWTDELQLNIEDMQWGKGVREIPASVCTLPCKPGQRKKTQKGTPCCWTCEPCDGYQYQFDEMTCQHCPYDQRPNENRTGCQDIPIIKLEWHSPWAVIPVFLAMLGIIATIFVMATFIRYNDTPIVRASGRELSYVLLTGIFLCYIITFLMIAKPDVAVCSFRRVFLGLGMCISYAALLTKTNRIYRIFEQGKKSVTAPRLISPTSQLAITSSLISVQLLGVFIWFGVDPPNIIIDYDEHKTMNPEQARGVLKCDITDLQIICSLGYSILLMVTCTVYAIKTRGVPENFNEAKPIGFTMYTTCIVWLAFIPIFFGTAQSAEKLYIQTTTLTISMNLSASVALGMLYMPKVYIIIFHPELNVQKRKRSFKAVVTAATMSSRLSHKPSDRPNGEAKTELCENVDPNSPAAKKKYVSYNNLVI
row,Compound,EC50
1,"C[C@H](C(=O)NC1COc2ccccc2C1O)c1ccccc1 (single isomer, unassigned) [Example 1]",874 nM
2,"C[C@H](C(=O)NC1COc2ccccc2C1O)c1ccccc1 (single isomer, unassigned) [Example 2]",96 nM
3,"C[C@H](C(=O)NC1COc2ccccc2C1O)c1ccccc1 (single isomer, unassigned) [Example 5]",68 nM
4,"C[C@H](C(=O)NC1COc2ccccc2C1O)c1ccccc1 (single isomer, unassigned) [Example 6]",101 nM
5,"C[C@H](C(=O)NC1COc2ccccc2C1(C)O)c1ccccc1 (single isomer, unassigned) [Example 7]",911 nM
6,"C[C@H](C(=O)NC1COc2ccccc2C1(C)O)c1ccccc1 (single isomer, unassigned) [Example 8]",274 nM
7,"CNC1c2ccccc2OCC1NC(=O)[C@@H](C)c1ccccc1 (single isomer, unassigned) [Example 9]",4990 nM
8,"CNC1c2ccccc2OCC1NC(=O)[C@@H](C)c1ccccc1 (single isomer, unassigned) [Example 10]",1650 nM
9,"COC1c2ccccc2OCC1NC(=O)[C@@H](C)c1ccccc1 (single isomer, unassigned) [Example 11]",55 nM
10,"C[C@H](C(=O)NC1COc2ccccc2C1S(C)(=O)=O)c1ccccc1 (single isomer, unassigned) [Example 12]",7 nM
11,"C[C@H](C(=O)NC1COc2ccccc2C1S(C)(=O)=O)c1ccccc1 (single isomer, unassigned) [Example 13]",26 nM
12,"C[C@H](C(=O)NC1COc2ccccc2C1S(C)(=O)=O)c1ccc(F)cc1 (single isomer, unassigned) [Example 17]",28 nM
13,"C[C@H](C(=O)NC1COc2ccccc2C1N1CCCC1)c1ccc(F)cc1 (single isomer, unassigned) [Example 35]",62 nM
14,"C[C@H](C(=O)NC1COc2ccc(F)cc2C1O)c1ccccc1 (stereo in doubt) [Example 3, (2S)—N-((cis)-6-fluoro-4-hydroxy-3,4-dihydro-2H-1-benzopyran-3-yl)-2-phenylpropanamide]",1200 nM
15,"CNC1c2ccccc2OCC1NC(=O)[C@@H](C)c1ccccc1 (stereo in doubt) [Example 14, (2S)—N-[(trans)-4-(methylamino)-3,4-dihydro-2H-1-benzopyran-3-yl]-2-phenylpropanamide]",65 nM
16,"C[C@H](C(=O)NC1COc2ccccc2C1=O)c1ccccc1 (stereo partly drawn) [Example 4, (2S)—N-(4-oxo-3,4-dihydro-2H-1-benzopyran-3-yl)-2-phenylpropanamide]",860 nM

# Other lines, results leading:
row,EC50,Compound
1,20 nM,"CO[C@@H]1c2ccccc2OC[C@H]1NC(=O)C(c1ccc(F)cc1)N1CC(OC(F)(F)F)C1 (relative stereo) [Example 24, 2-(4-fluorophenyl)-N-((trans)-4-methoxy-3,4-dihydro-2H-1-benzopyran-3-yl)-2-[3-(trifluoromethoxy)azetidin-1-yl]acetamide]"
2,27 nM,"CO[C@@H]1c2ccccc2OC[C@H]1NC(=O)C(c1ccc(F)cc1F)N1CC(OC(F)(F)F)C1 (relative stereo) [Example 25, 2-(2,4-difluorophenyl)-N-((trans)-4-methoxy-3,4-dihydro-2H-1-benzopyran-3-yl)-2-[3-(trifluoromethoxy)azetidin-1-yl]acetamide]"
3,14 nM,"CO[C@@H]1c2ccccc2OC[C@H]1NC(=O)C1c2ccccc2CC(=O)N1CC1CCOCC1 (relative stereo) [Example 28, N-((trans)-4-methoxy-3,4-dihydro-2H-1-benzopyran-3-yl)-2-[(oxan-4-yl)methyl]-3-oxo-1,2,3,4-tetrahydroisoquinoline-1-carboxamide]"
4,8 nM,"CO[C@@H]1c2ccccc2OC[C@H]1NC(=O)C1c2ccccc2CC(=O)N1Cc1ccccn1 (relative stereo) [Example 29, N-((trans)-4-methoxy-3,4-dihydro-2H-1-benzopyran-3-yl)-3-oxo-2-[(pyridin-2-yl)methyl]-1,2,3,4-tetrahydroisoquinoline-1-carboxamide]"
5,11 nM,"CO[C@@H]1c2ccccc2OC[C@H]1NC(=O)C(OCC1CC1)c1ccc(F)cc1 (relative stereo) [Example 30, 2-(cyclopropylmethoxy)-2-(4-fluorophenyl)-N-((trans)-4-methoxy-3,4-dihydro-2H-1-benzopyran-3-yl)acetamide]"
6,54 nM,"CO[C@@H]1c2ccccc2OC[C@H]1NC(=O)C(Oc1ccnc(C)n1)c1ccc(F)cc1F (relative stereo) [Example 31, 2-(2,4-difluorophenyl)-N-((trans)-4-methoxy-3,4-dihydro-2H-1-benzopyran-3-yl)-2-[(2-methylpyrimidin-4-yl)oxy]acetamide]"
7,300 nM,"CO[C@@H]1c2ccccc2OC[C@H]1NC(=O)C(c1ccc(F)cc1F)n1ccccc1=O (relative stereo) [Example 32, 2-(2,4-difluorophenyl)-N-((trans)-4-methoxy-3,4-dihydro-2H-1-benzopyran-3-yl)-2-(2-oxo-1,2-dihydropyridin-1-yl)acetamide]"
8,15 nM,"COC1c2ccccc2OCC1NC(=O)[C@@H]1c2ccccc2CC(=O)N1CC1CC1 (single isomer, unassigned) [Example 18]"
9,6 nM,"COC1c2ccccc2OCC1NC(=O)[C@@H]1c2ccccc2CC(=O)N1CC1CC1 (single isomer, unassigned) [Example 19]"
10,10 nM,"C[C@H](C(=O)NC1COc2ccccc2C1S(C)(=O)=O)c1ccc(Cl)cc1 (single isomer, unassigned) [Example 20]"
11,33 nM,"C[C@H](C(=O)NC1COc2ccccc2C1S(C)(=O)=O)c1ccc(Cl)cc1 (single isomer, unassigned) [Example 21]"
12,69 nM,"CNC1c2ccccc2OCC1NC(=O)[C@@H](C)c1ccc(F)cc1 (single isomer, unassigned) [Example 22]"
13,110 nM,"CNC1c2ccccc2OCC1NC(=O)[C@@H](C)c1ccc(F)cc1 (single isomer, unassigned) [Example 23]"
14,23 nM,"COC1c2ccccc2OCC1NC(=O)[C@@H]1c2ccccc2CC(=O)N1CCCF (single isomer, unassigned) [Example 26]"
15,22 nM,"COC1c2ccccc2OCC1NC(=O)[C@@H]1c2ccccc2CC(=O)N1CCCF (single isomer, unassigned) [Example 27]"
16,700 nM,"CNC(=O)c1ccccc1C(=O)NC1c2ccccc2OCC1NC(=O)[C@@H](C)c1ccc(F)cc1 (single isomer, unassigned) [Example 33]"
17,97 nM,"CNC(=O)c1ccccc1C(=O)NC1c2ccccc2OCC1NC(=O)[C@@H](C)c1ccc(F)cc1 (single isomer, unassigned) [Example 34]"
18,33 nM,"C[C@H](C(=O)NC1COc2ccccc2C1N1CCC1)c1ccc(F)cc1 (single isomer, unassigned) [Example 36]"
19,55 nM,"C[C@H](C(=O)NC1COc2ccccc2C1N(C)C)c1ccc(F)cc1 (single isomer, unassigned) [Example 37]"
20,30 nM,"C[C@H](C(=O)NC1COc2ccccc2C1N1CCC(F)(F)C1)c1ccc(F)cc1 (single isomer, unassigned) [Example 38]"
21,23 nM,"C[C@H](C(=O)NC1COc2ccccc2C1N1CCOCC1)c1ccc(F)cc1 (single isomer, unassigned) [Example 39]"
22,14 nM,"COC1c2ccccc2OCC1NC(=O)[C@@H]1c2ccccc2CC(=O)N1CC1CC1 (stereo in doubt) [Example 15, (1S)-2-(cyclopropylmethyl)-N-((trans)-4-methoxy-3,4-dihydro-2H-1-benzopyran-3-yl)-3-oxo-1,2,3,4-tetrahydroisoquinoline-1-carboxamide]"

# Target: T1, mGluR7
# Assay: Kinetic impedance assay (desensitization) in stable CHO-mGluR7 cells, response to tool activator CPD A after pre-treatment
# Assay type: cell-based
# Conditions: pre-treatment 1 hour (EC80), FIG. 1B
# Experimental: Stable CHO-mGluR7 cells (DiscoverX) were pre-incubated with compounds (EC80, 1 h), washed and after 30 min, impedance changes upon addition of a tool mGluR7 activator (CPD A) were determined (Cellkey, Molecular Devices).
row,Compound,EC50 of subsequent response to CPD A increased
1,"Cl.Cl.c1ccc(C(NCCNC(c2ccccc2)c2ccccc2)c2ccccc2)cc1 [AMN082, N,N′-dibenzhydrylethane-1,2-diamine dihydrochloride]",5 fold

# Same assay, conditions: pre-treatment 1 hour (EC80), FIG. 1B; read-out: Emax of subsequent response to CPD A reduced by
row,Compound,Emax
1,"Cl.Cl.c1ccc(C(NCCNC(c2ccccc2)c2ccccc2)c2ccccc2)cc1 [AMN082, N,N′-dibenzhydrylethane-1,2-diamine dihydrochloride]",75%
